For assay [1], the system named is HBsAg antigen-specific IFN-γ. Set-up: species or system C57BL/6(N) mice. The following applies: mouse, in vivo.
In assay [2] the test system is HBcAg antigen-specific IFN-γ. Set-up: species or system C57BL/6(N) mice. The following applies: mouse, in vivo.

Take QS-21 [QS21]: the “induced production level of HBsAg-specific IFN-γ, CpG T1 with different saponins” value in assay [1] is given as “best effect”. In addition, the “induced production level of HBcAg-specific IFN-γ, CpG T1 with different saponins” value in assay [2] is “best effect”.

The values are drawn from patent publication US12622962B2 (priority 2019, dated 2026).
